PMC10460880, “Cathepsin K‐Activated Probe for Fluoro‐Photoacoustic Imaging of Early Osteolytic Metastasis” (Advanced Science, 2023)

Key:
[1] = Histology (H&E) of organs after injection; type: in vivo, mice; settings: 24 h post intravenous administration
[2] = Renal clearance efficiency study; type: in vivo, BALB/c nude mice; settings: mice, i.v. 50 μM, 200 μL; urine, UV absorbance at 615 nm; n = 3
Procedure: Bone marrow toxicity analysis. The bone marrow toxicity of CTSK-APPA and CTSK-APP was assessed by blood analyses in mice. SPF grade 4-week-old BALB/c nude mice were intravenously injected with CTSK-APPA(50 μM, 200 μL) or saline (200 μL). The blood samples were collected in anticoagulant tubes at 24 h post-injection and stored at 4°C. The red blood count (RBC) and white blood count (WBC) were further measured.
Renal clearance efficiency studies. SPF grade 4-week-old BALB/c nude mice were intravenously injected with CTSK-APPA or CTSK-APP (50 μM, 200 μL) and placed in metabolic cages. The urine was collected at 3, 6, and 24 h post-injection, and then centrifuged at 5000 r.p.m. for 5 min. The supernatants containing excreted probes were quantified by using a UV-vis absorption spectrometer. […]
In vivo Bioluminescence, DR, CT, and MR imaging. […] Then BL imaging was recorded on an IVIS Spectrum imaging system at 10 min post-injection under anesthesia using isoflurane. All data were analyzed with the Living Image software. DR, CT, and MR imaging were recorded on an IVIS Spectrum imaging system, a single-photon emission computed tomography imaging system, and a preclinical magnetic resonance solution system, respectively.
Real-time tumor imaging. […] Fluorescence and PA images were acquired at 0, 1, 2, 4, 8, 12, and 24 h post-injection. […]
Histology. […] Images were captured by using a fluorescence microscope. […]

[3] = test system: CTSK-overexpressing OCs on calf bone slice; test: In vitro bone resorption imaging assay; type: cell-based, C57BL/6J mice; settings: probe 5 μM, 37 °C, 2 h; Ex 660 nm, Em 710 nm; n = 3
Procedure: PS. RAW 264.7 cells and BMMs were maintained in an atmosphere of 5% CO2 and 95% humidified air at 37 °C. The medium was changed every day.
Cell cytotoxicity assay. MDA-MB-231/Luc and RAW 264.7 cells were seeded in 96-well plates (5×10^3 cells per well) for 24 h and then incubated with CTSK-APPA or CTSK-APP (5, 10, 20, 50 μM) or saline for 24 h. The medium was removed and cells were incubated with CCK-8 (0.5 mg/mL) for another 1 h. The absorbance of the mixture at 450 nm was measured by using a microplate reader. Cell viability was expressed by the ratio of the absorbance of the cells incubated with the probes to that of the cells incubated with culture medium only.
In vitro osteoclast differentiation. Bone marrow-derived macrophages were isolated from the femurs and tibias of 4-week-old C57BL/6J mice and cultured in a complete medium containing M-CSF (30 ng/mL) for 4 days. BMMs were harvested to the 24-well plates (1×10^4 per well) and cultured in the complete medium containing M-CSF (30 ng/mL) and RANKL (100 ng/mL) for another 4 days. The osteoclasts were fixed and stained by using acid phosphatase and a leukocyte kit according to the manufacturer’s procedures.
In vitro bone resorption imaging assay. […]
Fluorescence images were captured by using the IVIS Spectrum imaging system with excitation […]

[4] = test system: BMMs, MDA-MB-231 cells, MCF-7 cells, neutrophils; test: Cell selectivity experiment, other cells; type: cell-based; settings: MDA-MB-231, MCF-7, neutrophils, n = 3
OCs = test: Cell selectivity experiment, osteoclasts; type: cell-based; settings: n = 3

Cbz‐Leu‐Arg‐OH [CTSK-APPA]
histological changes (H&E) after injection [1]: no histological changes | renal clearance efficiency 24 h post-injection [2]: 58.4% | NIR fluorescence of bone-resorption slice vs normal bone slices [3]: stronger NIR fluorescence signal | NIR fluorescence activation by other cells [4]: did not induce NIR fluorescence activation | NIR fluorescence after incubation with OCs (OCs): strong NIR fluorescence signals
